According to publication PMC3421038 (The Pediatric infectious disease journal, 2012):
Where two headings read alike, the source gives them in different places.

What was measured:
[1] = human, in vivo, iv, 6 mg/kg
[2] = in vivo
[3] = in vivo, cited from earlier work
[4] = human, in vivo, cited from earlier work
[5] = human, in vivo; cited from earlier work
[6] = tested on: hepatic cytochrome P450 enzyme system; settings: cited from earlier work

AUC(0-t) [1]: 262 µg·h/mL
Cmax [1]: 25500 ng/mL
clearance [1]: 0.35 mL/min/kg
half-life [1]: 372 min
CPK value after the dose of daptomycin [2]: 86 IU/L
CPK value before the dose of daptomycin [2]: 132 IU/L
calcium level after the daptomycin dose [2]: 9.7
calcium level before the daptomycin dose [2]: 9.3
SMILES: CCCCCCCCCC(=O)N[C@@H](Cc1c[nH]c2ccccc12)C(=O)N[C@H](CC(N)=O)C(=O)N[C@@H](CC(=O)O)C(=O)N[C@@H]1C(=O)NCC(=O)N[C@@H](CCCN)C(=O)N[C@@H](CC(=O)O)C(=O)N[C@H](C)C(=O)N[C@@H](CC(=O)O)C(=O)NCC(=O)N[C@H](CO)C(=O)N[C@@H]([C@H](C)CC(=O)O)C(=O)N[C@@H](CC(=O)c2ccccc2N)C(=O)O[C@@H]1C [daptomycin]
respiratory rate, temperature, heart rate, or mean blood pressure during the daptomycin infusion ([2]; 6 mg/kg): No significant changes
adverse events classified as serious adverse events ([2]; iv, 6 mg/kg): Five
adverse events related to study drug ([2]; iv, 6 mg/kg): None
adverse events reported (number of events) ([2]; iv, 6 mg/kg): 34
subjects with adverse events ([2]; iv, 6 mg/kg): 55%
mean exposure (AUCinf) ([3]; 4 mg/kg): 417 mg·h/L
administered dose excreted within 24 hours as intact drug [3]: 50%
kinetics (dose linearity) [3]: linear kinetics
mean exposure (AUCinf) ([4]; 8 mg/kg): 429 mg·h/L
mean exposure (AUCinf) ([4]; 10 mg/kg): 550 mg·h/L
patients with cellulitis as serious adverse event [5]: 1.3%
patients with elevation of CPK concentrations [5]: 2.1%
renal toxicity [5]: does not cause renal toxicity
effect on the hepatic cytochrome P450 enzyme system [6]: does not have an effect
